Laboratory results reported in patent publication US20170129916A1, “NOVEL BETULINIC PROLINE IMIDAZOLE DERIVATIVES AS HIV INHIBITORS” (HETERO RESEARCH FOUNDATION, priority 2014, published 2017).

Columns and labels:
[1] = system: HIV-1 strains, for e.g., 92HT599; assay: Antiviral activity: p24 estimation in MT-2 cells infected with HIV-1; assay type: cell-based; settings: Human immunodeficiency virus 1, MT2, MT-2 cells infected with HIV-1, p24, ~96 hours; for IC50: read-out: Antiviral activity IC50 (nM) Efficacy IC50
Description: MT-2 cells were infected with required number of TCID50's of HIV-1 strains, for e.g., 92HT599. The infected cells were plated at the concentration of 30, 000 cells per well in a 96 well plate. Test compound was added to the 96 well plate with the final concentration of DMSO (vehicle—not more than 1%). The plates are then incubated in a CO2 incubator for ˜96 hours (˜4 days) for viral infection. At the end of incubation period an aliquot from each well was taken for p24 estimation. The quantitation of p24 is an estimated index for antiviral activity of the compound. Percent inhibition was calculated with reference to control values (vehicle controls).
p-24 estimation was carried out using Advance biosciences kit as per the procedure detailed by supplier.

[2] = Single dose oral pharmacokinetic study; assay type: in vivo; settings: mouse, mice, 30 mg/kg, plasma; for AUC(0-t): read-out: Mice oral PK @30 mg/kg AUC 0-t; for Cmax: read-out: Mice oral PK @30 mg/kg Cmax
Summary of the method: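 Rats or mice received 30 mg/kg orally at 10 ml/kg dose volume. Retro-orbital blood was taken into K3 EDTA at defined intervals under light ether anesthesia and centrifuged to plasma. Plasma levels were measured by LC-MS-MS.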

Row | SMILES | IC50 [1] [nM] | AUC(0-t) [2] [µg·h/mL] | Cmax [2] [µg/mL] | inhibition at 0.1 µM [1] [%] | inhibition at 1 µM [1] [%]
1 | C=C(C)[C@@H]1CC[C@]2(C(=O)N3CCC[C@H]3c3ncc(C(C)(C)C)o3)CC[C@]3(C)[C@H](CC[C@@H]4[C@@]5(C)CC[C@H](OC(=O)[C@H]6C[C@@H](C(=O)O)C6(C)C)C(C)(C)[C@@H]5CC[C@]43C)[C@@H]12 [Compound 16, (1R,3S)-3-((((1R,3aS,5aR,5bR,7aR,9S,11aR,11bR,13aR,13bR)-3a-((S)-2-(5-(tert-butyl)oxazol-2-yl)pyrrolidine-1-carbonyl)-5a,5b,8,8,11a-pentamethyl-1-(prop-1-en-2-yl)icosahydro-1H-cyclopenta[a]chrysen-9-yl)oxy)carbonyl)-2,2-dimethylcyclobutane-1-carboxylic acid] | 103 | 229 | 7.89 | – | –
2 | C=C(C)[C@@H]1CC[C@]2(C(=O)N3CCC[C@H]3c3nc(-c4ccccc4)co3)CC[C@]3(C)[C@H](CC[C@@H]4[C@@]5(C)CC[C@H](OC(=O)[C@H]6C[C@@H](C(=O)O)C6(C)C)C(C)(C)[C@@H]5CC[C@]43C)[C@@H]12 [Compound 17, (1R,3S)-2,2-dimethyl-3-((((1R,3aS,5aR,5bR,7aR,9S,11aR,11bR,13aR,13bR)-5a,5b,8,8,11a-pentamethyl-3a-((S)-2-(4-phenyloxazol-2-yl)pyrrolidine-1-carbonyl)-1-(prop-1-en-2-yl)icosahydro-1H-cyclopenta[a]chrysen-9-yl)oxy)carbonyl)cyclobutane-1-carboxylic acid] | 58.6 | 219 | 7.09 | – | –
3 | C=C(C)[C@@H]1CC[C@]2(C(=O)N3CCC[C@H]3c3nc(C(C)(C)C)c[nH]3)CC[C@]3(C)[C@H](CC[C@@H]4[C@@]5(C)CC[C@H](OC(=O)[C@H]6C[C@@H](C(=O)O)C6(C)C)C(C)(C)[C@@H]5CC[C@]43C)[C@@H]12 [Compound 18, (1R,3S)-3-((((1R,3aS,5aR,5bR,7aR,9S,11aR,11bR,13aR,13bR)-3a-((S)-2-(4-(tert-butyl)-1H-imidazol-2-yl)pyrrolidine-1-carbonyl)-5a,5b,8,8,11a-pentamethyl-1-(prop-1-en-2-yl)icosahydro-1H-cyclopenta[a]chrysen-9-yl)oxy)carbonyl)-2,2-dimethylcyclobutane-1-carboxylic acid] | 35.8 | 409 | 16.4 | – | –
4 | C=C(C)[C@@H]1CC[C@]2(C(=O)N3CCC[C@H]3c3ncc(-c4ccccc4)[nH]3)CC[C@]3(C)[C@H](CC[C@@H]4[C@@]5(C)CC[C@H](OC(=O)C[C@H]6C[C@@H](C(=O)O)C6(C)C)C(C)(C)[C@@H]5CC[C@]43C)[C@@H]12 [Compound 21, (1R,3R)-2,2-dimethyl-3-(2-oxo-2-(((1R,3aS,5aR,5bR,7aR,9S,11aR,11bR,13aR,13bR)-5a,5b,8,8,11a-pentamethyl-3a-((S)-2-(5-phenyl-1H-imidazol-2-yl)pyrrolidine-1-carbonyl)-1-(prop-1-en-2-yl)icosahydro-1H-cyclopenta[a]chrysen-9-yl)oxy)ethyl)cyclo butane-1-carboxylic acid] | 1.29 | 269 | 13 | – | –
5 | C=C(C)[C@@H]1CC[C@]2(C(=O)N3CCC[C@H]3c3ncc(-c4ccccc4)[nH]3)CC[C@]3(C)[C@H](CC[C@@H]4[C@@]5(C)CC[C@H](OC(=O)c6ccc(OC(C)(C)C(=O)O)cc6)C(C)(C)[C@@H]5CC[C@]43C)[C@@H]12 [Compound 23, 2-methyl-2-(4-((((1R,3aS,5aR,5bR,7aR,9S,11aR,11bR,13aR,13bR)-5a,5b,8,8,11a-pentamethyl-3a-((S)-2-(5-phenyl-1H-imidazol-2-yl)pyrrolidine-1-carbonyl)-1-(prop-1-en-2-yl)icosahydro-1H-cyclopenta[a]chrysen-9-yl)oxy)carbonyl)phenoxy)propanoic acid] | 0.7 | 302 | 10.6 | – | –
6 | C=C(C)[C@@H]1CC[C@]2(C(=O)N3CCC[C@H]3c3nnc(-c4ccccc4)[nH]3)CC[C@]3(C)[C@H](CC[C@@H]4[C@@]5(C)CC[C@H](OC(=O)[C@H]6C[C@@H](C(=O)O)C6(C)C)C(C)(C)[C@@H]5CC[C@]43C)[C@@H]12 [Compound 24, (1R,3S)-2,2-dimethyl-3-((((1R,3aS,5aR,5bR,7aR,9S,11aR,11bR,13aR,13bR)-5a,5b,8,8,11a-pentamethyl-3a-((S)-2-(5-phenyl-4H-1,2,4-triazol-3-yl)pyrrolidine-1-carbonyl)-1-(prop-1-en-2-yl)icosahydro-1H-cyclopenta[a]chrysen-9-yl)oxy)carbonyl)cyclobutane-1-carboxylic acid] | 9.06 | 439 | 12.2 | – | –
7 | C=C(C)[C@@H]1CC[C@]2(C(=O)N3CCC[C@H]3c3nc(-c4cccc(Cl)c4)c[nH]3)CC[C@]3(C)[C@H](CC[C@@H]4[C@@]5(C)CC[C@H](OC(=O)[C@H]6C[C@@H](C(=O)O)C6(C)C)C(C)(C)[C@@H]5CC[C@]43C)[C@@H]12 [Compound 28, (1R,3S)-3-((((1R,3aS,5aR,5bR,7aR,9S,11aR,11bR,13aR,13bR)-3a-((S)-2-(4-(3-chlorophenyl)-1H-imidazol-2-yl)pyrrolidine-1-carbonyl)-5a,5b,8,8,11a-pentamethyl-1-(prop-1-en-2-yl)icosahydro-1H-cyclopenta[a]chrysen-9-yl)oxy)carbonyl)-2,2-dimethylcyclobutane-1-carboxylic acid] | 19.4 | 248 | 10 | 54 | 99
8 | C=C(C)[C@@H]1CC[C@]2(C(=O)N3C[C@H](O)C[C@H]3c3nc(-c4ccccc4)c[nH]3)CC[C@]3(C)[C@H](CC[C@@H]4[C@@]5(C)CC[C@H](OC(=O)[C@H]6C[C@@H](C(=O)O)C6(C)C)C(C)(C)[C@@H]5CC[C@]43C)[C@@H]12 [Compound 29, (1R,3S)-3-((((1R,3aS,5aR,5bR,7aR,9S,11aR,11bR,13aR,13bR)-3a-((2S,4R)-4-hydroxy-2-(4-phenyl-1H-imidazol-2-yl)pyrrolidine-1-carbonyl)-5a,5b,8,8,11a-pentamethyl-1-(prop-1-en-2-yl)icosahydro-1H-cyclopenta[a]chrysen-9-yl)oxy)carbonyl)-2,2-dimethyl cyclobutane-1-carboxylic acid] | 12.3 | 57.5 | 4.5 | 99 | 99
9 | C=C(C)[C@@H]1CC[C@]2(C(=O)N3C[C@H](OCCOC)C[C@H]3c3nc(C(C)(C)C)c[nH]3)CC[C@]3(C)[C@H](CC[C@@H]4[C@@]5(C)CC[C@H](OC(=O)[C@H]6C[C@@H](C(=O)O)C6(C)C)C(C)(C)[C@@H]5CC[C@]43C)[C@@H]12 [Compound 31, (1R,3S)-3-((((1R,3aS,5aR,5bR,7aR,9S,11aR,11bR,13aR,13bR)-3a-((2S,4R)-2-(4-(tert-butyl)-1H-imidazol-2-yl)-4-(2-methoxyethoxy)pyrrolidine-1-carbonyl)-5a,5b,8,8,11a-pentamethyl-1-(prop-1-en-2-yl)icosahydro-1H-cyclopenta[a]chrysen-9-yl)oxy)carbonyl)-2,2-dimethylcyclobutane-1-carboxylic acid] | 19.7 | 195 | 9.2 | 100 | 100
